According to US9676784B2, “Fused imidazolyl derivatives, their preparation and use as medicaments” (LABORATORIOS DEL DR. ESTEVE S.A., priority 2013, dated 2017):
Counter-ions that a name gives are not always drawn.

The compounds below were run against σ1-receptor (Cavia porcellus, UniProt Q60492) (assay: Binding assay for the σ1-receptor, [3H]-(+)-pentazocine, guinea pig brain membranes).
Sequence of σ1-receptor (Q60492 whole entry): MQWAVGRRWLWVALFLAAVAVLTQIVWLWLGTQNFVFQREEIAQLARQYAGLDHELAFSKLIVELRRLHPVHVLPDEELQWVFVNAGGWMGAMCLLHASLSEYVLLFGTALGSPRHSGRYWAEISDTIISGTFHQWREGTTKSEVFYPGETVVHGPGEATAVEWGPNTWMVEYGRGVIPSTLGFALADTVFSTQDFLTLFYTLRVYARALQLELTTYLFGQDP
Method: Guinea pig brains were homogenized in 10 vols. (w/v) of Tris-HCl 50 mM 0.32 M sucrose, pH 7.4, with a Kinematica Polytron PT 3000 at 15000 r.p.m. for 30 s. The homogenate was centrifuged at 1000 g for 10 min at 4° C. and the supernatants collected and centrifuged again at 48000 g for 15 min at 4° C. The pellet was resuspended in 10 volumes of Tris-HCl buffer (50 mM, pH 7.4), incubated at 37° C. for 30 min, and centrifuged at 48000 g for 20 min at 4° C. Following this, the pellet was re-suspended in fresh Tris-HCl buffer (50 mM, pH 7.4) and stored on ice until use.
The radioligand used was [^3H]-(+)-pentazocine at 5.0 nM and the final volume was 200 μl. The incubation was initiated with the addition of 100 μl of membrane at a final tissue concentration of approximately 5 mg tissue net weight/mL and the incubation time was 150 m. at 37° C. After incubation, the membranes were collected onto pretreated glass fiber filterplate (MultiScreen-FC, Millipore), with polyethylenimine 0.1%. […] Nonspecific binding was determined with 1 μM haloperidol.

Structure (SMILES)	Ki
CCNC(=O)Nc1ncc2n1CCCN(CC1CCCCC1)C2 [Example 1, 1-(8-(Cyclohexylmethyl)-6,7,8,9-tetrahydro-5H-imidazo[1,5-a][1,4]diazepin-3-yl)-3-ethylurea]	179 nM
CCNC(=O)Nc1ncc2n1CCN(CC1CCCCC1)C2 [Example 2, 1-(7-(Cyclohexylmethyl)-5,6,7,8-tetrahydroimidazo[1,5-a]pyrazin-3-yl)-3-ethylurea]	106 nM
CCCNC(=O)Nc1ncc2n1CCN(CC1CCCCC1)C2 [Example 3, 1-(7-(Cyclohexylmethyl)-5,6,7,8-tetrahydroimidazo[1,5-a]pyrazin-3-yl)-3-propylurea]	71 nM
c1ccc(Nc2ncc3n2CCN(CC2CCCCC2)C3)cc1 [Example 5, 7-(Cyclohexylmethyl)-N-phenyl-5,6,7,8-tetrahydroimidazo[1,5-a]pyrazin-3-amine]	8.2 nM
Fc1cc(F)cc(Nc2ncc3n2CCN(CC2CCCCC2)C3)c1 [Example 6, 7-(cyclohexylmethyl)-N-(3,5-difluorophenyl)-5,6,7,8-tetrahydroimidazo[1,5-a]pyrazin-3-amine]	12 nM
COc1cccc(Nc2ncc3n2CCN(CC2CCCCC2)C3)c1 [Example 7, 7-(cyclohexylmethyl)-N-(3-methoxyphenyl)-5,6,7,8-tetrahydroimidazo[1,5-a]pyrazin-3-amine]	13 nM
Fc1ccc(Nc2ncc3n2CCN(CC2CCCCC2)C3)cc1 [Example 8, 7-(cyclohexylmethyl)-N-(4-fluorophenyl)-5,6,7,8-tetrahydroimidazo[1,5-a]pyrazin-3-amine]	8 nM
Fc1c(Cl)cccc1Nc1ncc2n1CCN(Cc1ccccc1)C2 [Example 9, 7-benzyl-N-(3-chloro-2-fluorophenyl)-5,6,7,8-tetrahydroimidazo[1,5-a]pyrazin-3-amine]	232 nM
c1ccc(Nc2ncc3n2CCN(CC2CCOCC2)C3)cc1 [Example 12, N-phenyl-7-((tetrahydro-2H-pyran-4-yl)methyl)-5,6,7,8-tetrahydroimidazo[1,5-a]pyrazin-3-amine]	258 nM
COc1cccc(Nc2ncc3n2CCCN(CC2CCOCC2)C3)c1 [Example 15, N-(3-methoxyphenyl)-8-((tetrahydro-2H-pyran-4-yl)methyl)-6,7,8,9-tetrahydro-5H-imidazo[1,5-a][1,4]diazepin-3-amine]	266 nM
Fc1ccc(Nc2ncc3n2CCCN(CC2CCOCC2)C3)cc1 [Example 16, N-(4-fluorophenyl)-8-((tetrahydro-2H-pyran-4-yl)methyl)-6,7,8,9-tetrahydro-5H-imidazo[1,5-a][1,4]diazepin-3-amine]	175 nM
Fc1c(Cl)cccc1Nc1ncc2n1CCCN(CC1CCOCC1)C2 [Example 17, N-(3-chloro-2-fluorophenyl)-8-((tetrahydro-2H-pyran-4-yl)methyl)-6,7,8,9-tetrahydro-5H-imidazo[1,5-a][1,4]diazepin-3-amine]	14 nM
Fc1cc(F)cc(Nc2ncc3n2CCCN(CC2CCOCC2)C3)c1 [Example 18, N-(3,5-difluorophenyl)-8-((tetrahydro-2H-pyran-4-yl)methyl)-6,7,8,9-tetrahydro-5H-imidazo[1,5-a][1,4]diazepin-3-amine]	26 nM
Oc1cccc(Nc2ncc3n2CCN(Cc2ccccc2)C3)c1 [Example 19, 3-(7-benzyl-5,6,7,8-tetrahydroimidazo[1,5-a]pyrazin-3-ylamino)phenol]	63 nM
Fc1ccc(CN2CCn3c(cnc3Nc3ccc(F)cn3)C2)cc1 [Example 20, 7-(4-fluorobenzyl)-N-(5-fluoropyridin-2-yl)-5,6,7,8-tetrahydroimidazo[1,5-a]pyrazin-3-amine]	67 nM
Fc1ccc(Nc2ncc3n2CCN(Cc2ccccc2)C3)cc1 [Example 21, 7-benzyl-N-(4-fluorophenyl)-5,6,7,8-tetrahydroimidazo[1,5-a]pyrazin-3-amine]	44 nM
CCC(=O)N(c1cccc(O)c1)c1ncc2n1CCN(Cc1ccccc1)C2 [Example 24, N-(7-benzyl-5,6,7,8-tetrahydroimidazo[1,5-a]pyrazin-3-yl)-N-(3-hydroxyphenyl)propionamide]	124 nM
CCC(=O)N(c1cccc(O)c1)c1ncc2n1CCN(CCc1ccccc1)C2 [Example 25, N-(3-hydroxyphenyl)-N-(7-phenethyl-5,6,7,8-tetrahydroimidazo[1,5-a]pyrazin-3-yl)propionamide]	358 nM
c1ccc(CNc2ncc3n2CCN(CC2CCCCC2)C3)cc1 [Example 27, N-Benzyl-7-(cyclohexylmethyl)-5,6,7,8-tetrahydroimidazo[1,5-a]pyrazin-3-amine]	38 nM
c1ccc(Cc2ncc3n2CCN(CC2CCCCC2)C3)cc1 [Example 28, 3-Benzyl-7-(cyclohexylmethyl)-5,6,7,8-tetrahydroimidazo[1,5-a]pyrazine trifluoroacetate]	39 nM
Fc1ccc(Cc2ncc3n2CCN(CC2CCCCC2)C3)cc1 [Example 30, 7-(cyclohexylmethyl)-3-(4-fluorobenzyl)-5,6,7,8-tetrahydroimidazo[1,5-a]pyrazine hydrochloride]	22 nM
c1ccc(CCN2CCn3c(cnc3Nc3ccccc3)C2)cc1 [Example 31, 7-Phenethyl-N-phenyl-5,6,7,8-tetrahydroimidazo[1,5-a]pyrazin-3-amine]	101 nM
Oc1cccc(Nc2ncc3n2CCN(CCc2ccccc2)C3)c1 [Example 34, 3-(7-phenethyl-5,6,7,8-tetrahydroimidazo[1,5-a]pyrazin-3-ylamino)phenol]	168 nM
Fc1ccc(Nc2ncc3n2CCN(Cc2ccc(F)cc2F)C3)cc1 [Example 35, 7-(2,4-difluorobenzyl)-N-(4-fluorophenyl)-5,6,7,8-tetrahydroimidazo[1,5-a]pyrazin-3-amine]	37 nM
Fc1ccc(Nc2ncc3n2CCN(CC2CCC(F)(F)CC2)C3)cc1 [Example 36, 7-((4,4-difluorocyclohexyl)methyl)-N-(4-fluorophenyl)-5,6,7,8-tetrahydroimidazo[1,5-a]pyrazin-3-amine]	21 nM
Fc1ccc(Nc2ncc3n2CCN(Cc2ccc(F)cn2)C3)cc1 [Example 37, N-(4-fluorophenyl)-7-((5-fluoropyridin-2-yl)methyl)-5,6,7,8-tetrahydroimidazo[1,5-a]pyrazin-3-amine]	293 nM
Fc1ccc(Nc2ncc3n2CCN(Cc2ccc(F)nc2)C3)cc1 [Example 38, N-(4-fluorophenyl)-7-((6-fluoropyridin-3-yl)methyl)-5,6,7,8-tetrahydroimidazo[1,5-a]pyrazin-3-amine]	311 nM
COc1ccc(CN2CCn3c(cnc3Nc3ccc(F)cc3)C2)cn1 [Example 39, N-(4-fluorophenyl)-7-((6-methoxypyridin-3-yl)methyl)-5,6,7,8-tetrahydroimidazo[1,5-a]pyrazin-3-amine]	373 nM
Fc1ccc(Nc2ncc3n2CCN(C2CCCCC2)C3)cc1 [Example 40, 7-cyclohexyl-N-(4-fluorophenyl)-5,6,7,8-tetrahydroimidazo[1,5-a]pyrazin-3-amine]	68 nM
